Source: ChEMBL document CHEMBL3286342, “Design, synthesis, and structure-activity relationships of pyridoquinazolinecarboxamides as RNA polymerase I inhibitors” (J Med Chem, 2014)
Active and inactive are the calls of the source. No cut-off for these calls is given here.

Experiments:
U2OS [1] = test: Cytotoxicity against human U2OS cells assessed as loss of cell viability at 0.5 to 5 uM after 48 hrs by WST-1 assay; type: functional, cell-based
[2] = Inhibition of RNA polymerase-1 in human U2OS cells assessed as decrease in nucleolar localization of nucleolin after 3 hrs by epifluorescence microscopic analysis; type: cell-based
U2OS [3] = conditions: Homo sapiens, 0.1 to 1 uM
Description: Inhibition of RNA polymerase-1 in human U2OS cells assessed as effect on nucleolin protein expression at 0.1 to 1 uM after 3 hrs by Western blot analysis

U2OS [4] = conditions: Homo sapiens, 10 uM
Description: Inhibition of RNA polymerase-1 in human U2OS cells assessed as effect on nucleolin protein expression at 10 uM after 3 hrs by Western blot analysis

Liver microsome = test: Half life in human liver microsomes at 1 uM preincubated for 5 mins followed by beta-NADPH addition; type: ADME
[5] = target: DNA-directed RNA polymerase I subunit RPA1 (Homo sapiens, UniProt O95602); conditions: u2os
Sequence of DNA-directed RNA polymerase I subunit RPA1 (O95602 whole entry): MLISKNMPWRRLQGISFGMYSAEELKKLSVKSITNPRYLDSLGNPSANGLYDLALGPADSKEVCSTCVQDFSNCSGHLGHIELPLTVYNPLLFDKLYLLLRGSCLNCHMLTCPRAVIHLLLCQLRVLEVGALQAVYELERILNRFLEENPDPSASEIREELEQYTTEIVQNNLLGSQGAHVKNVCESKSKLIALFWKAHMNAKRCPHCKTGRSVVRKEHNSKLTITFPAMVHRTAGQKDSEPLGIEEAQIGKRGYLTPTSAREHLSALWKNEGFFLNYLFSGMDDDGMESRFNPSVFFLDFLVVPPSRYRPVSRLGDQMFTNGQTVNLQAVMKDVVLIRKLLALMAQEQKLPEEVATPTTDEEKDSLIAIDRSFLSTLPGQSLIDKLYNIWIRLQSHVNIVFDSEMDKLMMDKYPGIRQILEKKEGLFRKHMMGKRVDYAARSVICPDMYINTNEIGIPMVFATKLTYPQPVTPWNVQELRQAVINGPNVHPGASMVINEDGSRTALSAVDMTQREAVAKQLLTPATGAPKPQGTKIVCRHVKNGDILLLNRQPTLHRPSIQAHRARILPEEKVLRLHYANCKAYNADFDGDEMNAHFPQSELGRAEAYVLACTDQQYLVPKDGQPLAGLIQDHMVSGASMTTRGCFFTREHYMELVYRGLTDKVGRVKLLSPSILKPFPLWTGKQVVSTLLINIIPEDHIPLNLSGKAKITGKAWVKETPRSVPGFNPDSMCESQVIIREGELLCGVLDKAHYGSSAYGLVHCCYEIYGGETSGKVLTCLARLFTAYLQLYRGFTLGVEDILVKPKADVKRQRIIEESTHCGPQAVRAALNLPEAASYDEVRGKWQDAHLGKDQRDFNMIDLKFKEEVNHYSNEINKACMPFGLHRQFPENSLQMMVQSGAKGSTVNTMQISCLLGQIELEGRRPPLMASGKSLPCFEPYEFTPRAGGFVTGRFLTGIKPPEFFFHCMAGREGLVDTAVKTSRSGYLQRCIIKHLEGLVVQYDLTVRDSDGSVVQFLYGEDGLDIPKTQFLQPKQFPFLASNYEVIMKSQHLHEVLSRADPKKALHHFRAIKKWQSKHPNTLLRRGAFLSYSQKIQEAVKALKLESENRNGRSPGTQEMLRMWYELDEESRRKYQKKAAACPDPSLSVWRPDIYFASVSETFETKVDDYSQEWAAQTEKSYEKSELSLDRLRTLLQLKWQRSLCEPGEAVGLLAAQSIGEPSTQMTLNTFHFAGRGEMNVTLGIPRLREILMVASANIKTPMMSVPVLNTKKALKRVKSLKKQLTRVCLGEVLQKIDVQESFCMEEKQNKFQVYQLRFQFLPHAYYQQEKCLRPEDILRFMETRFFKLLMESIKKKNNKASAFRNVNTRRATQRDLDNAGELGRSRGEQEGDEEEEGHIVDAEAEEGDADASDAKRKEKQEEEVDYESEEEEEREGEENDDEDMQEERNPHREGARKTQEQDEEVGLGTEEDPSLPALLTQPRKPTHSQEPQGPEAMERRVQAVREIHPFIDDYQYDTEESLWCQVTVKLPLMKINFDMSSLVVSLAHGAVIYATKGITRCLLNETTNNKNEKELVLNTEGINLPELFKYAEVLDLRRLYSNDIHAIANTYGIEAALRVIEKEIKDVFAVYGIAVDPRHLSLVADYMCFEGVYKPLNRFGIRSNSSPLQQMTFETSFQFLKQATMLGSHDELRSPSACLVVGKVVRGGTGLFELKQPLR
Description: Induction of RNA polymerase-1 RPA194 subunit degradation in human U2OS cells after 3 hrs by epifluorescence microscopic analysis

| SMILES | Activity (U2OS [1]) | IC50 [2] | inhibition (U2OS [3]) | inhibition (U2OS [4]) | t1/2 (Liver microsome) | IC50 [5] |
| --- | --- | --- | --- | --- | --- | --- |
| CN(C)CCN(C)C(=O)c1cccn2c(=O)c3cc4ccccc4cc3nc12 | inactive | > 100 µM | inactive | Active |  |  |
| O=C(NCCN1CCCCC1)c1cccn2c(=O)c3cc4ccccc4cc3nc12 | Active |  | inactive | Active | 25 min |  |
| CC(CNC(=O)c1cccn2c(=O)c3cc4ccccc4cc3nc12)N(C)C (stereo not given) | Active |  |  |  | 43 min |  |
| CCN(CC)CCNC(=O)c1cccn2c(=O)c3cc4ccccc4cc3nc12 |  |  |  |  | 21 min |  |
| CCN(CC)C1CCN(C(=O)c2cccn3c(=O)c4cc5ccccc5cc4nc23)C1 (stereo not given) |  | 10.6 µM |  |  |  | 31.8 µM |
| O=C(NCCN1CCCC1)c1cccn2c(=O)c3cc4ccccc4cc3nc12 | Active |  |  |  | 33 min |  |
| CN(C)CCCCNC(=O)c1cccn2c(=O)c3cc4ccccc4cc3nc12 | inactive |  | inactive | Active |  |  |
| CN(C)CCOC(=O)c1cccn2c(=O)c3cc4ccccc4cc3nc12 |  | 12.3 µM |  |  |  | 50.9 µM |
| CN(C)CCNC(=O)c1cccn2c(=O)c3cc4ccccc4cc3nc12 | Active | 0.07 µM | inactive | Active | 57 min |  |
| CCN(CC)CCNC(=O)c1cccn2c(=O)c3ccccc3nc12 |  | 3.28 µM |  |  |  | 1.35 µM |
| O=C(NCCN1CCOCC1)c1cccn2c(=O)c3cc4ccccc4cc3nc12 | inactive |  | inactive | Active |  |  |
| CN1CCN(CCNC(=O)c2cccn3c(=O)c4cc5ccccc5cc4nc23)CC1 |  |  |  |  | 43 min |  |
| COCCN(C)CCNC(=O)c1cccn2c(=O)c3cc4ccccc4cc3nc12 |  |  |  |  | 14 min |  |
| CN(C)CCNC(=O)c1cccn2c(=O)c3ccccc3nc12 | inactive | 3.17 µM | inactive | Active |  | 2.17 µM |
| CC(CN(C)C)NC(=O)c1cccn2c(=O)c3cc4ccccc4cc3nc12 (stereo not given) |  |  | inactive | Active | 54 min |  |
